≈ marks a conversion by molar mass, not a printed value.

Assay [1] deals with Mycobacterium tuberculosis. The assay is described as follows: Antitubercular activity against Mycobacterium tuberculosis H37Rv overexpressing DprE1 assessed as bacterial growth inhibition. The class given is functional.
Assay [2] deals with Mycobacterium tuberculosis. The assay is described as follows: Antimycobacterial activity against BTZ-resistant Mycobacterium tuberculosis NTB1 assessed as bacterial growth inhibition incubated for 6 days by resazurin dye based assay. Particulars: NTB1, 144 h, time 6 day. The format is functional. For orientation: The colour change of resazurin is a common sign of viable cells or microbes.

Assay [3] has as its system Mycobacterium tuberculosis. The assay is described as follows: Antitubercular activity against multidrug-resistant clinical isolate Mycobacterium tuberculosis CDCT-3 assessed as bacterial growth inhibition. The class given is functional.
The test system of assay [4] is Mycobacterium tuberculosis. The assay is described as follows: Antitubercular activity against multidrug-resistant clinical isolate Mycobacterium tuberculosis CDCT-27 assessed as bacterial growth inhibition. The format is functional.
In assay [5] the test system is Mycobacterium tuberculosis. The assay is described as follows: Antitubercular activity against multidrug-resistant clinical isolate Mycobacterium tuberculosis CDCT-2 assessed as bacterial growth inhibition. The class given is functional.
Assay [6] relates to Mycobacterium tuberculosis. The assay is described as follows: microbe, parasite or virus in culture. To be noted: 144 h.
Assay [7] concerns Mycobacterium tuberculosis. The assay is described as follows: microbe, parasite or virus in culture. Particulars: 144 h. This is another data set of the same source.
Assay [8] relates to Mycobacterium tuberculosis. The assay is described as follows: Antitubercular activity against multidrug resistant Mycobacterium tuberculosis SK-7782 assessed as bacterial growth inhibition by resazurin microtiter assay. The class given is functional.
Assay [9] has as its system Mycobacterium tuberculosis. The assay is described as follows: Antimycobacterial activity against multidrug resistant Mycobacterium tuberculosis 16995 assessed as bacterial growth inhibition incubated for 7 days by microplate Alamar blue assay. The format is functional. To be noted: Mycobacterium tuberculosis, 16995, 168 h; time 7 day.
Assay [10] concerns Mycobacterium tuberculosis. The assay is described as follows: Antimycobacterial activity against multidrug resistant Mycobacterium tuberculosis 16833 assessed as bacterial growth inhibition incubated for 7 days by microplate Alamar blue assay. The class given is functional. Particulars: Mycobacterium tuberculosis, 16833, 168 h; time 7 day.
In assay [11] the test system is Mycobacterium tuberculosis. The assay is described as follows: Antitubercular activity against multidrug resistant Mycobacterium tuberculosis assessed as bacterial growth inhibition incubated for 6 days by resazurin based fluorescence assay. To be noted: 144 h, time 6 day. The class given is functional.
In assay [12] the test system is Mycobacterium tuberculosis. The assay is described as follows: Antitubercular activity against extensively drug resistant Mycobacterium tuberculosis assessed as bacterial growth inhibition incubated for 6 days by resazurin based fluorescence assay. Particulars: 144 h, time 6 day. The format is functional.
The subject of assay [13] is Mycobacterium tuberculosis. The assay is described as follows: Antitubercular activity against multidrug resistant Mycobacterium tuberculosis clinical isolate assessed as bacterial growth inhibition. The format is functional.
In assay [14] the test system is Mycobacterium tuberculosis. The assay is described as follows: Antitubercular activity against rifampicin resistant Mycobacterium tuberculosis ATCC 35838 infected in RAW264.7 cells assessed as inhibition of intracellular bacterial growth incubated for 6 days by microplate alamar blue assay. The format is functional. Details: scale not given: the % may be the effect or the level left. To be noted: time 6 day.

Assay [15] relates to Mycobacterium tuberculosis. The assay is described as follows: Antitubercular activity against ethambutol resistant Mycobacterium tuberculosis ATCC 35837 inhibition infected in RAW264.7 cells assessed as inhibition of intracellular bacterial growth incubated for 6 days by microplate alamar blue assay. The format is functional. Details: scale not given: the % may be the effect or the level left. Particulars: time 6 day.

The subject of assay [16] is Mycobacterium tuberculosis. The assay is described as follows: Antitubercular activity against isoniazid resistant Mycobacterium tuberculosis ATCC 35822 infected in RAW264.7 cells assessed as inhibition of intracellular bacterial growth incubated for 6 days by microplate alamar blue assay. Particulars: time 6 day. Also noted: scale not given: the % may be the effect or the level left. The class given is functional.

Assay [17] has as its system Mycobacterium tuberculosis. The assay is described as follows: Antimycobacterial activity against clinically isolated multidrug resistant Mycobacterium tuberculosis assessed as bacterial growth inhibition incubated for 14 days by CLSI protocol based assay. To be noted: 336 h, time 14 day. The class given is functional.

On to `C[C@@H](NC(=O)c1cc([N+](=O)[O-])cc(C(F)(F)F)c1)c1ccccc1`, for which the MIC in assay [1] turned out to be 310 ng/mL (≈ 0.916 µM).
In the case of `O=c1nc(N2CCN(S(=O)(=O)C3CC3)CC2)sc2c([N+](=O)[O-])cc(C(F)(F)F)cc12`, the MIC in [2] stood at 14700 ng/mL (≈ 31.7 µM).
For the compound `CCc1ccc(NC(=O)COc2cc(C)nc3ccc(OC)cc23)cc1`, the MIC in assay [3] was 8 ng/mL (≈ 0.0228 µM); in [4], 8 ng/mL (≈ 0.0228 µM); in [5] it was below 2 ng/mL.
For `CCS(=O)(=O)N1CCN(c2nc(=O)c3cc(C(F)(F)F)cc([N+](=O)[O-])c3s2)CC1`, the MIC in assay [2] was found to be 25100 ng/mL (≈ 55.5 µM).
In the case of `CCCCCc1ccc(NC(=O)COc2cc(C)nc3ccc(OC)cc23)cc1`, the MIC in [3], in assay [4] and in [5] was below 2 ng/mL throughout.
Turning to `CNC(=O)c1c(-c2ccc(O)cc2)oc2ccc(O)c(CN3CCCCC3)c12`, the results for the MIC in [6] and in assay [7] were 0.125 µM (≈ 0.0476 µg/mL) and 0.06 µM (≈ 0.0228 µg/mL), respectively.
For orientation: MIC90 means an inhibitory concentration at the 90% level, which refers to growth in some studies and to a panel of isolates in others. For `CC1(C)CC(=O)C(=CNc2ccccc2O)C(=O)C1`, the MIC90 in [8] turned out to be 8000 ng/mL (≈ 30.9 µM).
As to `O=c1nc(N2CC3CN(Cc4ccc(Cl)c(F)c4)CC3C2)sc2c([N+](=O)[O-])cc(C(F)(F)F)cc12` (stereo not given), the MIC came to 0.073 µM (≈ 0.0386 µg/mL) in assay [9] and 0.102 µM (≈ 0.0539 µg/mL) in assay [10].
For the compound `c1cc2c(s1)CCOC21CCN(Cc2ccc3c(c2)OCCO3)CC1`, the MIC in [11] and in assay [12] was 0.3 µM (≈ 0.107 µg/mL) each time.
With `O=c1nc(N2CC3CN(Cc4ccc(OC(F)(F)F)cc4)CC3C2)sc2c([N+](=O)[O-])cc(C(F)(F)F)cc12` (stereo not given), the MIC came out at 0.053 µM (≈ 0.0297 µg/mL) in assay [9] and 0.085 µM (≈ 0.0476 µg/mL) in assay [10].
As to `COc1nc2ccc(Br)cc2cc1[C@@H](c1ccccc1)[C@@](O)(CCN(C)C)c1cccc2ccccc12` [BEDAQUILINE], the MIC in assay [13] turned out to be 10 ng/mL (≈ 0.018 µM).
For the compound `CCc1ccc([C@H]2C[C@@H](C(F)(F)F)n3ncc(C(=O)NCc4ccc(OC)cc4)c3N2)cc1`, the figures for the MIC in assay [11] and in [12] were 0.16 µM (≈ 0.0734 µg/mL) and 0.3 µM (≈ 0.138 µg/mL), respectively.
For the compound `CCCc1ccc(NC(=O)COc2cc(C)nc3ccc(OC)cc23)cc1`, the figures for the MIC in [3], in assay [4] and in [5] were 8 ng/mL (≈ 0.022 µM), 4 ng/mL (≈ 0.011 µM) and below 2 ng/mL, respectively.
As to `COc1ccc(/C=C2/S/C(=N/N=C/c3ccccc3O)NC2=O)cc1`, in [8], the MIC90 is 1000 ng/mL (≈ 2.83 µM).
`CC(C)=CCC/C(C)=C/CNCCNC1C2CC3CC(C2)CC1C3` (stereo not given) [SQ109]: the Activity in assay [14], in assay [15] and in assay [16] was 99% in each case.
In the case of `C[C@@]1(COc2ccc(N3CCC(Oc4ccc(OC(F)(F)F)cc4)CC3)cc2)Cn2cc([N+](=O)[O-])nc2O1`, the MIC in [17] turned out to be 6 ng/mL (≈ 0.0112 µM).
For `O=c1nc(N2CCN(S(=O)(=O)c3cccs3)CC2)sc2c([N+](=O)[O-])cc(C(F)(F)F)cc12`, in [2], the MIC is above 100000 ng/mL.
